Common to all, as to format: in vivo
For test [1], the system named is EPHHL. Nature of the test: Pre-emergence biological efficacy. Particulars: Euphorbia heterophylla, 312 h, evaluated after 13 days, read-out: damage to plant (100=total damage to plant; 0=no damage to plant). A digest of the protocol:
(§1)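 Scoring: visual plant damage at 13 days after spraying, 100 = total damage, 0 = none. Pots were sprayed 1 day post-sowing with an aqueous dilution (0.2% Genapol XO80) of an IF50/acetone formulation; glasshouse 24/18 °C, 15 h light, 50% humidity, watered twice daily.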

Test [2] relates to ECHCG. Nature of the test: Pre-emergence biological efficacy. Particulars: Echinochloa crus-galli, 312 h, evaluated after 13 days, read-out: damage to plant (100=total damage to plant; 0=no damage to plant). A digest of the protocol: as §1
Test [3] has as its system SETFA. Kind of test: Pre-emergence biological efficacy. Particulars: Setaria faberi, 312 h, evaluated after 13 days, read-out: damage to plant (100=total damage to plant; 0=no damage to plant). A digest of the protocol: as §1
For test [4], the system named is IPOHE. Nature of the test: Pre-emergence biological efficacy. Particulars: Ipomoea hederacea, 312 h, evaluated after 13 days, read-out: damage to plant (100=total damage to plant; 0=no damage to plant). A digest of the protocol:
as §1

Test [5] has as its system AMAPA. Kind of test: Pre-emergence biological efficacy. Particulars: Amaranthus palmeri, 312 h, evaluated after 13 days, read-out: damage to plant (100=total damage to plant; 0=no damage to plant). A digest of the protocol: as §1
The subject of test [6] is LOLPE. Kind of test: Pre-emergence biological efficacy. Particulars: Lolium perenne, 312 h, evaluated after 13 days, read-out: damage to plant (100=total damage to plant; 0=no damage to plant). A digest of the protocol:
as §1

Test [7] has as its system EPHHL. Nature of the test: Post-emergence biological efficacy. Particulars: Euphorbia heterophylla, 312 h, evaluated after 13 days, read-out: damage to plant (100=total damage to plant; 0=no damage to plant). A digest of the protocol: (§2)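 Damage was rated 13 days after treatment, from 0 (none) to 100 (total). Test compounds, formulated in IF50 and diluted with 0.2% Genapol XO80 to final dose, were sprayed on glasshouse plants raised for 14 days from seed.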

The subject of test [8] is CHEAL. Nature of the test: Post-emergence biological efficacy. Particulars: Chenopodium album, 312 h, evaluated after 13 days, read-out: damage to plant (100=total damage to plant; 0=no damage to plant). A digest of the protocol:
as §2

Test [9] deals with ECHCG. Nature of the test: Post-emergence biological efficacy. Particulars: Echinochloa crus-galli, 312 h, evaluated after 13 days, read-out: damage to plant (100=total damage to plant; 0=no damage to plant). A digest of the protocol: as §2
For test [10], the system named is SETFA. Nature of the test: Post-emergence biological efficacy. Particulars: Setaria faberi, 312 h, evaluated after 13 days, read-out: damage to plant (100=total damage to plant; 0=no damage to plant). A digest of the protocol:
as §2

The test system of test [11] is ELEIN. Kind of test: Post-emergence biological efficacy. Particulars: 312 h, evaluated after 13 days, read-out: damage to plant (100=total damage to plant; 0=no damage to plant). A digest of the protocol: as §2
Test [12] has as its system DIGSA. Nature of the test: Post-emergence biological efficacy. Particulars: Digitaria sanguinalis, 312 h, evaluated after 13 days, read-out: damage to plant (100=total damage to plant; 0=no damage to plant). A digest of the protocol:
as §2

For test [13], the system named is IPOHE. Kind of test: Post-emergence biological efficacy. Particulars: Ipomoea hederacea, 312 h, evaluated after 13 days, read-out: damage to plant (100=total damage to plant; 0=no damage to plant). A digest of the protocol:
as §2

Test [14] deals with AMAPA. Kind of test: Post-emergence biological efficacy. Particulars: Amaranthus palmeri, 312 h, evaluated after 13 days, read-out: damage to plant (100=total damage to plant; 0=no damage to plant). A digest of the protocol:
as §2

The test system of test [15] is LOLPE. Kind of test: Post-emergence biological efficacy. Particulars: Lolium perenne, 312 h, evaluated after 13 days, read-out: damage to plant (100=total damage to plant; 0=no damage to plant). A digest of the protocol:
as §2

Turning to `CCOC(=O)C1(C)CC(c2cc(-c3ccc(C)nc3F)c(F)cc2Cl)=NO1` (stereo not drawn) [Compound 1-463, Ethyl 3-[2-chloro-4-fluoro-5-(2-fluoro-6-methyl-3-pyridyl)-phenyl]-5-methyl-4H-isoxazole-5-carboxylate], the pest or weed control at 250 g/ha in test [1] was 20%; in [2], 50%; in [3], 30%; in test [4], 10%; in test [5], 20%; in [6] it was 10%. Also, the pest or weed control at 250 g/ha in [7] is 70%; in test [8], 70%; in [9], 90%; in [10], 90%; in [11], 60%; in test [12] it was 70%. Further, the pest or weed control at 250 g/ha in test [13] was 100%; in [14], 70%; in test [15], 0%.

In the case of `CCOC(=O)C1(C)CC(c2cc(-c3cc(F)cnc3Cl)c(F)cc2Cl)=NO1` (stereo not drawn) [Compound 1-475, Ethyl 3-[2-chloro-5-(2-chloro-5-fluoro-3-pyridyl)-4-fluoro-phenyl]-5-methyl-4H-isoxazole-5-carboxylate], the pest or weed control at 250 g/ha in test [1] was 40%; in [2] it was 0%; in [3], 0%; in test [4], 20%; in test [5] it was 0%; in [6], 0%. In addition, the pest or weed control at 250 g/ha in test [7] came out at 70%; in [8], 100%; in test [9] it was 80%; in [10] it was 80%; in test [11] it was 30%; in [12] it was 50%. Moreover, the pest or weed control at 250 g/ha in [13] was found to be 100%; in test [14], 100%; in test [15], 10%.

For `CCOC(=O)C1(C)CC(c2cc(-c3ccncc3)c(F)cc2Cl)=NO1` (stereo not drawn) [Compound 1-487, Ethyl 3-[2-chloro-4-fluoro-5-(4-pyridyl)-phenyl]-5-methyl-4H-isoxazole-5-carboxylate], the pest or weed control at 250 g/ha in test [1], in [2], in [3], in test [4], in test [5] and in test [6] was 0% throughout. In addition, the pest or weed control at 250 g/ha in test [7], in test [8], in test [9], in test [10], in test [11] and in test [12] was 0% in each case. In addition, the results for the pest or weed control at 250 g/ha in test [13], in [14] and in test [15] were 0%, 30% and 0%, respectively.

For the compound `CCOC(=O)C1(C)CC(c2cc(-c3ccnc(C(F)(F)F)c3)c(F)cc2Cl)=NO1` (stereo not drawn) [Compound 1-499, Ethyl 3-[2-chloro-4-fluoro-5-[2-(trifluoromethyl)-4-pyridyl]-phenyl]-5-methyl-4H-isoxazole-5-carboxylate], the pest or weed control at 250 g/ha in test [1] stood at 0%; in test [2], 0%; in test [3] it was 0%; in [4] it was 0%; in [5], 20%; in [6] it was 20%. Besides, the pest or weed control at 250 g/ha was determined as 50% in test [7]; 80% in test [8]; 50% in [9]; 80% in test [10]; 60% in test [11]; 60% in test [12]. Also, the pest or weed control at 250 g/ha in test [13] came to 70%; in [14], 80%; in [15] it was 0%.

Regarding `CCOC(=O)C1(C)CC(c2cc(-c3cc(Cl)ncc3OC)c(F)cc2Cl)=NO1` (stereo not drawn) [Compound 1-511, Ethyl 3-[2-chloro-5-(2-chloro-5-methoxy-4-pyridyl)-4-fluoro-phenyl]-5-methyl-4H-isoxazole-5-carboxylate], the pest or weed control at 250 g/ha in test [1], in test [2], in [3], in [4], in test [5] and in test [6] was 0% throughout. Also, the pest or weed control at 250 g/ha in test [7] is 50%; in test [8], 50%; in [9], 30%; in test [10], 30%; in [11] it was 40%; in test [12], 30%. Further, the pest or weed control at 250 g/ha in [13] stood at 60%; in [14], 40%; in test [15], 0%.

Consider `CCOC(=O)C1(C)CC(c2cc(-c3cc(Cl)nc(OC)c3)c(F)cc2Cl)=NO1` (stereo not drawn) [Compound 1-523, Ethyl 3-[2-chloro-5-(2-chloro-6-methoxy-4-pyridyl)-4-fluoro-phenyl]-5-methyl-4H-isoxazole-5-carboxylate], for which the pest or weed control at 250 g/ha is 0% in test [1]; 20% in [2]; 0% in test [3]; 0% in [4]; 0% in test [5]; 0% in [6]. For the same compound, the pest or weed control at 250 g/ha turned out to be 50% in [7]; 40% in [8]; 20% in [9]; 50% in test [10]; 10% in [11]; 50% in test [12]. For the same compound, the pest or weed control at 250 g/ha is 60% in test [13], 50% in test [14] and 0% in test [15].

In the case of `CCOC(=O)C1(C)CC(c2cc(-c3ncc(F)cc3F)c(F)cc2Cl)=NO1` (stereo not drawn) [Compound 1-551, Ethyl 3-[2-chloro-5-(3,5-difluoro-2-pyridyl)-4-fluoro-phenyl]-5-methyl-4H-isoxazole-5-carboxylate], the pest or weed control at 250 g/ha in test [1] was determined as 50%; in test [2], 80%; in [3], 90%; in [4], 60%; in [5], 80%; in test [6], 50%. Moreover, the pest or weed control at 250 g/ha came out at 90% in [7]; 100% in test [8]; 100% in test [9]; 100% in test [10]; 100% in test [11]; 100% in [12]. Besides, the pest or weed control at 250 g/ha in [13], in test [14] and in test [15] was 100% each time.

With `CCOC(=O)C1(C)CC(c2cc(-c3ncc(Br)cc3Cl)c(F)cc2Cl)=NO1` (stereo not drawn) [Compound 1-559, Ethyl 3-[5-(5-bromo-3-chloro-2-pyridyl)-2-chloro-4-fluoro-phenyl]-5-methyl-4H-isoxazole-5-carboxylate], the pest or weed control at 250 g/ha in test [1] was found to be 50%; in [2], 90%; in [3], 80%; in test [4] it was 10%; in [5] it was 100%; in test [6], 50%. Also, the pest or weed control at 250 g/ha amounted to 100% in test [7]; 100% in test [8]; 100% in [9]; 100% in test [10]; 90% in test [11]; 80% in test [12]. The pest or weed control at 250 g/ha in [13] was determined as 100%; in test [14], 100%; in test [15] it was 90%.

The values are drawn from patent publication US20240124432A1, “HERBICIDAL COMPOUNDS” (SYNGENTA CROP PROTECTION AG, priority 2020, published 2024).
